Reference: patent publication US9095587B2, “Methods and compositions for improved nerve conduction velocity” (Spinifex Pharmaceuticals Pty Ltd, priority 2010, dated 2015)
Where “and” joins values, the source holds several entries; their conditions need not be identical. Identical values can stand only once. Counter-ions that a name gives are not always drawn.

How the values were obtained:
diabetic rats [1] = test: Thermal hyperalgesia, Hargreaves plantar test, diabetic rats; assay type: in vivo, rat
Procedure: (§1) Diabetes was induced in mature (19 week old) male Sprague-Dawley by a single STZ injection (40-45 mg/kg i.p.). The diabetic state was monitored weekly using commercially available test strips for blood (tail vein) and urine glucose levels. Body weight was also monitored daily. The criteria for the diabetic state were: blood glucose>19.9 mM, glycosuria, and no evidence of body weight gain.
(§2) Tactile allodynia thresholds for the foot were measured by an electronic von Frey hair apparatus. Latencies for foot withdrawal reflexes to noxious thermal stimulation were estimated by the Hargreaves plantar test (Hargreaves K, Dubner R, Brown F, Flores C, Joris J. A new and sensitive method for measuring thermal nociception in cutaneous hypeialgesia. Pain 1988; 32: 77-88). All tests were carried out using commercially available equipment (Ugo-Basile, Comerio, Italy). Measurements were made in a constant temperature room at the same time each day, and rats were given a 3-day period for familiarization with handling, the environment, equipment, and experimental procedure.
In a similar way to the assessment of tactile allodynia, thermal sensitivity was also measured on 2 separate occasions, before and after treatment. […] After 30 min acclimatization, a constant power infrared stimulus was focused onto the sole of the foot and the latency for reflex foot withdrawal recorded via a photoelectric monitor. […]

diabetic rats [2] = test: Sciatic motor nerve conduction velocity in STZ-diabetic rats; assay type: in vivo, rat; conditions: for Motor NCV, Mean: group mean of 10 diabetic rats; for Motor NCV, Mean / Motor NCV: last 2 weeks of 8 weeks diabetes; for Motor NCV: individual diabetic rats
Procedure: as §1, with “Methods: Diabetes” for “Diabetes”
(§3) In final experiments, rats were anaesthetized with thiobutabarbital (50-100 mg kg-1 i.p.) The trachea was cannulated for artificial respiration. The level of anaesthesia was monitored by observing any reaction of blood pressure to manipulation, supplementary thiobutabarbital anaesthetic being given as necessary. As described in detail by Cameron et al., (Q. J. Expt Physiol, 74; 917-926, 1989 and Diabetes, 40:532-539, 1991), the sciatic nerve was exposed between the sciatic notch and knee. Bipolar stimulating electrodes were placed close to the nerve at the notch and knee. A concentric bipolar electrode was inserted into tibialis anterior muscle to monitor evoked electromyographic (EMG) activity. Potentials evoked from each stimulating site were averaged 8 times. Motor nerve conduction velocity (NCV) was calculated by dividing the distance between stimulating electrodes by the average latency difference between the onsets of EMG potentials evoked from the 2 sites. Nerve temperature was monitored using a thermocouple probe, and maintained in the range 36-38° C. by radiant heat. Body temperature was also maintained around 37° C. using a heated blanket.
as §1, with “Methods: Diabetes” for “Diabetes”, “also be” for “also”
as §3, with “necessary. The” for “necessary. As described in detail by Cameron et al., (Q. J. Expt Physiol, 74; 917-926, 1989 and Diabetes, 40:532-539, 1991), the”, “averaged […]” for “averaged 8”, “Motor NCV” for “Motor nerve conduction velocity (NCV)”, “blanket. Sensory NCV was measured for sensory saphenous nerve between groin and mid-calf in a similar fashion, except that direct nerve evoked potentials were recorded at the ankle using a unipolar platinum hook electrode. Reference values for comparison of the NCV data were obtained from nondiabetic control and 8 week diabetic control rats.” for “blanket.”
as §1
In final experiments, rats were anaesthetized with thiobutabarbital (50-100 mg kg-1 i.p.) The trachea was cannulated for artificial respiration. […]

diabetic rats [3] = test: Saphenous sensory nerve conduction velocity in STZ-diabetic rats; assay type: in vivo, rat; conditions: for Sensory NCV, Mean: group mean of 10 diabetic rats; for Sensory NCV, Mean / Sensory NCV: last 2 weeks of 8 weeks diabetes; for Sensory NCV: individual diabetic rats
Procedure: as §1, with “Methods: Diabetes” for “Diabetes”
Sensory NCV was measured for sensory saphenous nerve between groin and mid-calf in a similar fashion, except that direct nerve evoked potentials were recorded at the ankle using a unipolar platinum hook electrode.
as §1, with “Methods: Diabetes” for “Diabetes”, “also be” for “also”
as §3, with “necessary. The” for “necessary. As described in detail by Cameron et al., (Q. J. Expt Physiol, 74; 917-926, 1989 and Diabetes, 40:532-539, 1991), the”, “averaged […]” for “averaged 8”, “Motor NCV” for “Motor nerve conduction velocity (NCV)”, “blanket. Sensory NCV was measured for sensory saphenous nerve between groin and mid-calf in a similar fashion, except that direct nerve evoked potentials were recorded at the ankle using a unipolar platinum hook electrode. Reference values for comparison of the NCV data were obtained from nondiabetic control and 8 week diabetic control rats.” for “blanket.”
as §1
as §3, with “The” for “As described in detail by Cameron et al., (Q. J. Expt Physiol, 74; 917-926, 1989 and Diabetes, 40:532-539, 1991), the”, “NCV” for “nerve conduction velocity (NCV)”, “blanket. Sensory NCV was measured for sensory saphenous nerve between groin and mid-calf in a similar fashion, except that direct nerve evoked potentials were recorded at the ankle using a unipolar platinum hook electrode. […]” for “blanket.”

[4] = Body weight, blood glucose and general condition of treated diabetic rats; assay type: in vivo, rat; conditions: for End weight, Mean: group mean of 10 diabetic rats; for End weight, Mean / End weight: last 2 weeks of 8 weeks diabetes; for End weight: individual diabetic rats
Procedure: as §1, with “Methods: Diabetes” for “Diabetes”
as §1, with “Methods: Diabetes” for “Diabetes”, “also be” for “also”

diabetic rats [5] = test: Tactile allodynia, electronic von Frey hair apparatus, diabetic rats; assay type: in vivo, rat
Procedure: as §1
as §2, with “Measurements were made in a constant temperature room at the same time each day, and rats were given a 3-day period for familiarization with handling, the environment, equipment, and experimental procedure.” left out
Tactile allodynia was estimated on two separate occasions; once on a day before treatment was initiated, and then on the day immediately following the last day of the treatment period. […] Thus, stimulus intensity tracked the threshold, and a run of 6 near-threshold responses was used to estimate the 50% threshold value using lookup tables (Chaplan S R, Bach F W, Pogrel J W, Chung J M, Yaksh T L. Quantitative assessment of tactile allodynia in the rat paw. J Neurosci Meth 1994; 53: 55-63). […]

[6] = target: T1, AT1 (h) human recombinant (CHO cells) (Homo sapiens, UniProt P30556); test: AT1 (h) receptor binding assay; conditions: [125I][Sar1, Ile8]-AT II 0.05 nM, 60 min./37° C.; highest tested concentration
T1 construct: expressed in transfected cells; host or cells: CHO cells
T1 sequence (P30556 1-359): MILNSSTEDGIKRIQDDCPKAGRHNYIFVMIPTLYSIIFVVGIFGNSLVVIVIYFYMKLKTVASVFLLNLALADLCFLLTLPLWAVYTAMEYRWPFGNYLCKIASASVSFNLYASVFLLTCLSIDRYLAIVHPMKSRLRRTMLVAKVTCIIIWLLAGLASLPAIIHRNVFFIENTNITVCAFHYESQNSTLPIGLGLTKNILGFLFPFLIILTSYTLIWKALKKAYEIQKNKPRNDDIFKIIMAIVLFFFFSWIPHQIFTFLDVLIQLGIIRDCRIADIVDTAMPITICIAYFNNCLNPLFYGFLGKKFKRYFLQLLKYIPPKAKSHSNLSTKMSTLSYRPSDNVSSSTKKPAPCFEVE
Procedure: (§4) The specific ligand binding to the receptors is defined as the difference between the total binding and the nonspecific binding determined in the presence of an excess of unlabelled ligand. […] The IC50 values (concentration causing a half-maximal inhibition of control specific binding) and Hill coefficients (nH) were determined by non-linear regression analysis of the competition curves using Hill equation curve fitting. The inhibition constants (Ki) were calculated from the Cheng Prusoff equation (Ki=IC50/(1+(L/KD)), where L=concentration of radioligand in the assay, and KD=affinity of the radioligand for the receptor).

[7] = target: AT2 (h) human recombinant (Hela cells) (Homo sapiens, UniProt P50052); conditions: competition curve, Hill equation curve fitting
Procedure: as §4

[8] = 1.048 mg/kg by oral gavage, 1 day, before vs after drug
[9] = 1.048 mg/kg daily by oral gavage
[10] = 1.048 mg/kg daily by oral gavage, 28 days
[11] = 0.01048 mg/kg daily by gavage, 0.01048 mg/kg
[12] = 0.0349 mg/kg daily by gavage, 0.0349 mg/kg
[13] = 0.1048 mg/kg daily by gavage, 0.1048 mg/kg
[14] = 1.048 mg/kg daily by gavage, 1.048 mg/kg
[15] = 1.048 mg/kg daily by gavage for 2 weeks

AT2 (h) human recombinant (Hela cells), sequence (P50052 whole entry): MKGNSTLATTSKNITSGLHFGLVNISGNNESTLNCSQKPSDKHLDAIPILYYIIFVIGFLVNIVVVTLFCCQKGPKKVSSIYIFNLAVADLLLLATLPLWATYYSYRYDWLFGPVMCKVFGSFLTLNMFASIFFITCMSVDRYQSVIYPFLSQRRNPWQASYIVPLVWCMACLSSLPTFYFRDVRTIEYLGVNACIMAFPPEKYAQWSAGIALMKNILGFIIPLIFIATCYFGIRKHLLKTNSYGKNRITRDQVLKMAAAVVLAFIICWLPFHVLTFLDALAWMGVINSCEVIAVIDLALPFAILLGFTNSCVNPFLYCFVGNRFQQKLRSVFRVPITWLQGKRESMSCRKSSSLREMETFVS

## COc1ccc2c(c1OCc1ccccc1)C[C@@H](C(=O)O)N(C(=O)C(c1ccccc1)c1ccccc1)C2 [Compound 1 sodium salt, S-2-(diphenylacetyl)-5-benzyloxy-6-methoxy-1,2,3,4-tetrahydroisoquinoline-3-carboxylic acid]
Diabetic rats [1]; [8]
  effect on thermal hyperalgesia of only 1 day of treatment (paired Student's t): significant, albeit partial
Diabetic rats [1]; [9]
  treatment duration to full correction of thermal hyperalgesia: 3 days
Diabetic rats [2]; [9]
  treatment duration after which motor NCV was statistically within the nondiabetic range: 7 days
Diabetic rats [2]; [10]
  motor NCV, 28-day treatment group versus 14-day data: entirely comparable with the previously obtained 14-day data
Diabetic rats [2]; Rattus norvegicus, 336 h, oral, daily for 2 weeks, best fit sigmoid curve, read-out: ED50, correction of sciatic motor NCV deficit
  ED50: 0.044 mg/kg
Diabetic rats [2]; 0.01048 mg/kg daily by gavage
  Motor NCV, Mean: 53.25 m/s
Diabetic rats [2]; 0.0349 mg/kg daily by gavage
  Motor NCV, Mean: 56.68 m/s
Diabetic rats [2]; 0.1048 mg/kg daily by gavage
  Motor NCV, Mean: 60.51 m/s
Diabetic rats [2]; 1.048 mg/kg daily by gavage
  Motor NCV, Mean: 63.72 m/s
Diabetic rats [2]; [11]
  Motor NCV: 54.92 m/s and 55.17 m/s and 54.10 m/s and 50.78 m/s and 54.03 m/s and 51.60 m/s and 51.96 m/s and 56.90 m/s and 50.70 m/s and 52.38 m/s
Diabetic rats [2]; [12]
  Motor NCV: 56.15 m/s and 57.38 m/s and 56.90 m/s and 57.89 m/s and 59.32 m/s and 56.67 m/s and 53.68 m/s and 58.18 m/s and 54.55 m/s and 56.06 m/s
Diabetic rats [2]; [13]
  Motor NCV: 59.13 m/s and 61.48 m/s and 60.00 m/s (2×) and 58.62 m/s and 63.63 m/s and 64.15 m/s and 59.02 m/s and 60.78 m/s and 58.33 m/s
Diabetic rats [2]; [14]
  Motor NCV: 62.87 m/s and 62.30 m/s and 62.84 m/s and 62.50 m/s and 63.90 m/s and 62.69 m/s and 64.95 m/s and 61.75 m/s and 69.57 m/s and 63.81 m/s
Diabetic rats [3]; 1.048 mg/kg daily by gavage for 2 weeks, p<0.001, vs reference groups
  diabetic deficit corrected, saphenous sensory NCV: 99.1±5.0%
Diabetic rats [3]; [9]
  treatment duration after which sensory NCV was statistically within the nondiabetic range: 3 days
Diabetic rats [3]; [10]
  sensory NCV, 28-day treatment group versus 14-day data: entirely comparable with the previously obtained 14-day data
Diabetic rats [3]; Rattus norvegicus, 336 h, oral, daily for 2 weeks, best fit sigmoid curve, read-out: ED50, correction of saphenous sensory NCV deficit
  ED50: 0.02 mg/kg
Diabetic rats [3]; 0.01048 mg/kg daily by gavage
  Sensory NCV, Mean: 53.93 m/s
Diabetic rats [3]; 0.0349 mg/kg daily by gavage
  Sensory NCV, Mean: 57.25 m/s
Diabetic rats [3]; 0.1048 mg/kg daily by gavage
  Sensory NCV, Mean: 60.73 m/s
Diabetic rats [3]; 1.048 mg/kg daily by gavage
  Sensory NCV, Mean: 61.10 m/s
Diabetic rats [3]; [11]
  Sensory NCV: 55.47 m/s and 56.07 m/s and 51.59 m/s and 54.39 m/s and 55.30 m/s and 51.82 m/s and 51.85 m/s and 55.81 m/s and 53.85 m/s and 53.19 m/s
Diabetic rats [3]; [12]
  Sensory NCV: 57.43 m/s and 57.94 m/s and 55.60 m/s and 59.95 m/s and 56.00 m/s and 57.50 m/s and 55.93 m/s and 57.73 m/s and 57.72 m/s and 56.72 m/s
Diabetic rats [3]; [13]
  Sensory NCV: 61.11 m/s and 62.96 m/s and 61.22 m/s and 56.67 m/s and 63.16 m/s and 62.50 m/s (2×) and 63.04 m/s and 58.33 m/s and 55.83 m/s
Diabetic rats [3]; [14]
  Sensory NCV: 62.50 m/s (4×) and 60.63 m/s and 60.41 m/s and 60.71 m/s and 57.57 m/s and 60.98 m/s and 60.74 m/s
[4]; [15]
  condition of animals at the end of the experimental period: in good condition and behaviourally alert
[4]; 0.1048, 0.0349 or 0.01048 mg/kg daily by gavage for 2 weeks
  condition of animals at the end of the experimental period: in good condition and behaviourally alert
[4]; 0.01048 mg/kg daily by gavage
  End weight, Mean: 372 g
[4]; 0.0349 mg/kg daily by gavage
  End weight, Mean: 357 g
[4]; 0.1048 mg/kg daily by gavage
  End weight, Mean: 369 g
[4]; 1.048 mg/kg daily by gavage
  End weight, Mean: 390 g
[4]; [11]
  End weight: 374 g and 436 g and 346 g and 438 g and 349 g and 329 g and 364 g and 385 g and 386 g and 312 g
[4]; [12]
  End weight: 369 g and 427 g and 400 g and 396 g and 332 g and 307 g and 277 g and 327 g and 368 g (2×)
[4]; [13]
  End weight: 398 g and 363 g and 298 g and 315 g and 357 g and 346 g and 392 g and 405 g and 374 g and 440 g
[4]; [14]
  End weight: 429 g and 380 g and 389 g and 393 g and 390 g and 353 g and 366 g and 418 g and 360 g and 425 g
Diabetic rats [5]; [8]
  effect on tactile allodynia of only 1 day of treatment (paired Student's t): significant, albeit partial
Diabetic rats [5]; [9]
  treatment duration to full correction of tactile allodynia: 3 days

## COc1ccc2c(c1OCc1ccccc1)C[C@@H](C(=O)O)N(C(=O)C(c1ccccc1)c1ccccc1)C2 [Compound 1, S-2-(diphenylacetyl)-5-benzyloxy-6-methoxy-1,2,3,4-tetrahydroisoquinoline-3-carboxylic acid]
Diabetic rats [2]; [15]
  sciatic motor NCV compared with nondiabetic control group (one way ANOVA, Bonferroni test): not significantly different
Diabetic rats [2]; 1.048 mg/kg daily by gavage for 2 weeks, vs nondiabetic and diabetic reference groups
  reversal of the diabetic deficit, sciatic motor NCV: 92.6±5.4%
[6]
  Flags (IC50 determination): N.C. (Not calculable. IC50 value is not calculable because of less than 25% inhibition at the highest tested concentration.)
[7]
  nH (Hill coefficient): 1.3
